Reference: patent US9950983B2, “Tricyclic compounds and process for preparation thereof” (Council of Scientific and Industrial Research, priority 2014, dated 2018)

Tests used:
[1] = system: Ae. aegypti females mosquitoes; experiment: Mosquito repellence bioassay (protection period, time until the first bite); format: in vivo; conditions: time until first confirmed bite; for Protection period in hrs @dose 0.25 mg/cm^2: dose 0.25 mg/cm^2 on muslin cloth screen over human volunteer's hand; for Protection period in hrs @dose 0.50 mg/cm^2: dose 0.50 mg/cm^2 on muslin cloth screen over human volunteer's hand
Protocol: Protocol Adopted for the Mosquito Repellence Bioassay
Mosquito repellence activity was assessed on the basis of protection period (hr) offered by various analogues of Nootkatone against Mosquito bites. The protection period was measured on the basis of the concept “time until the first bite” pioneered by Granette (Comparison of mosquito repellency test under laboratory and field conditions. Granett, P. Proc Ann Meet NJ Mosq Assoc, 1938, vol. 25, 51,). Repellence tests were carried out against 3-5 days old, blood starved but sucrose fed (0.5M solution), Ae. aegypti females mosquitoes, drawn from well-established laboratory colony maintained at 27±1° C. Temperatureand 70±5% Relative humidity. The light intensity was regulated at 300-500 lux for testing against laboratory, colonized Ae. aegypti, a day biting mosquito. Human volunteer's hand covered with polythene disposable gloves was introduced in the cage containing about 200 hungry mosquitoes. Mosquitoes were allowed to bite on the back of the hand through muslin screen stuck over a small window (2 cm×2 cm) cutout in the polythene bag. Various analogues of Nootkatone were loaded on the muslin cloth screen instead of direct skin application so as to avoid the potential risk involved in the evaluation of natural products of unknown mammalian toxicity. All the test solutions were made in Analar grade Acetone The muslin cloth screen was first treated with the analogue taking two doses @0.25 mg/cm^2 and 0.5 mg/cm^2 and the solvent was evaporated before use. Control muslin screen was treated with solvent alone. After introduction of the hand covered with the polythene glove with the treated muslin screen into the mosquito cage, number of mosquito bites received in subsequent 5 minutes were counted. In the event of no bites in the initial 5 minutes exposure, the test hand was exposed repeatedly after every consecutive ½ hr for 5 minutes test till the time a confirmed bite was received. Number of hours before the receipt of a confirmed bite (Techniques for the evaluation of insect repellents. A critical review (Schreck, C. E, Ann Rev Entomol, 1977, vol 22, 101) represented the protection period offered by the test compound. In control rate of mosquito bite was 10-12 bites/min. Above test were repeated with both male and female human volunteers using different mosquito batches. All the tests were carried out at 27±1° C. temperature between 9.00-17.00 hrs.

[2] = system: Formosan subterranean termite (Coptotermes formosanus); conditions: Formosan subterranean termites; Zhu et al., J Chem Ecol 2001; cited from earlier work

Structure (SMILES)	Protection period in hrs @dose 0.25 mg/cm^2 [1]	Protection period in hrs @dose 0.50 mg/cm^2 [1]	lowest effective concentration tested [2]
CC1(C)CC(=O)C=C2C[C@@H]3[C@H]([C@@H]21)C3(C)C [1h, (1aR,1bR,6aR)-1,1,2,2-Tetramethyl-1a,1b,2,3,6,6a-hexahydro cyclo propa[a]inden-4(1H)-one]	2.19 ± 0.0716 h	2.38 ± 0.07567 h	–
CC1=C2C[C@@H]3[C@H](C2CCC1=O)C3(C)C (stereo partly drawn) [1d, (1aR,6aR)-1,1,5-trimethyl-1a,1b,2,3,6,6a hexahydrocyclopropa[a]inden-4(1H)-one]	5.64 ± 0.1984 h	6.29 ± 0.0844 h	–
C[C@@H]1CC(=O)C=C2C(=O)[C@@H]3[C@@H](C3(C)C)[C@]21C (racemic) [Recemic nardoaristolone B, (1aS,1bR,2R,6aR)-1,1,1b,2-Tetramethyl-1,1a,1b,2,3,6a-hexahydrocyclopropa[a]indene-4,6-dione]	3.30 ± 0.0708 h	5.63 ± 0.1778 h	–
CCOC(=O)[C@H]1[C@@H]2C(=O)C3=CC(=O)C[C@@H](C)[C@]3(C)[C@H]12 [1b, Ethyl(1R,1aS,1bR,2R,6aR)-1b,2-dimethyl-4,6-dioxo-1,1a,1b,2,3,4,6,6a-octahydrocyclopropa[a]indene-1-carboxylate]	1.23 ± 0.040 h	1.40 ± 0.0549 h	–
C=C(C)[C@@H]1CCC2=CC(=O)C[C@@H](C)[C@]2(C)C1 [Natural nootkatone, nootkatone, reference compound]	5.58 ± 0.171 h	>7 h	–
CC1(C)[C@@H]2CC3=CC(=O)CCC3[C@@H]21 (stereo partly drawn) [1c, (1aR,6aR)-1,1-Dimethyl-1a,1b,2,3,6,6a-hexahydrocyclopropa[a]-inden-4(1H)-one]	3.60 ± 0.0791 h	5.30 ± 0.088 h	–
CC[C@H]1CC(=O)C=C2C[C@@H]3[C@H]([C@@H]21)C3(C)C [1f, (1aR,1bS,6aR)-2-Ethyl-1,1-dimethyl-1a,1b,2,3,6,6a hexahydrocyclo propa[a]inden-4(1H)-one]	1.53 ± 0.1223 h	3.48 ± 0.1396 h	–
CCC[C@H]1CC(=O)C=C2C[C@@H]3[C@H]([C@@H]21)C3(C)C [1g, (1aR,1bS,6aR)-1,1-Dimethyl-2-propyl-1a,1b,2,3,6,6a-hexahydrocyclo propa[a]inden-4(1H)-one]	1.8 ± 0.1490 h	1.99 ± 0.1137 h	–
C[C@@H]1CC(=O)C=C2C(=O)[C@H]3[C@H](C3(C)C)[C@]21C [1a, (1aR,1bR,2R,6aS)-1,1,1b,2-Tetramethyl-1,1a,1b,2,3,6a-hexahydro-cyclopropa[a]indene-4,6-dione]	4.13 ± 0.0626 h	5.35 ± 0.0868 h	–
C=C(C)[C@@H]1CCC2=CC(=O)C[C@@H](C)[C@]2(C)C1 (racemic) [Recemic nootkatone, nootkatone, reference compound]	3.12 ± 0.07 h	5.06 ± 0.06 h	–
C[C@H]1CC(=O)C=C2C[C@@H]3[C@H]([C@@H]21)C3(C)C [1e, (1aR,1bS,6aR)-1,1,2-Trimethyl-1a,1b,2,3,6,6a-hexahydrocyclo propa[a]inden-4(1H)-one]	5.22 ± 0.0720 h	6.46 ± 0.1507 h	–
C=C(C)[C@@H]1CCC2=CC(=O)C[C@@H](C)[C@]2(C)C1 [nootkatone]	–	–	10 micrograms/g substrate
